Patent publication US20220402901A1 (Bial - R&D Investments, S.A., priority 2019, published 2022)
Converted amounts (≈) assume the structure as drawn.

Assays:
[1] = molecular target: T1, Human acid ceramidase (hACR) (Homo sapiens, UniProt Q13510); experiment: Acid ceramidase biochemical fluorescent assay (cell lysates overexpressing acid ceramidase, substrate Rbm14-12); conditions: 10 μg lysate protein, 1 hr preincubation at RT, pH 4.5, Rbm14-12 6.3 μM
T1 construct: expressed in transfected cells; lysates of cells overexpressing acid ceramidase
T1 sequence (Q13510 22-395): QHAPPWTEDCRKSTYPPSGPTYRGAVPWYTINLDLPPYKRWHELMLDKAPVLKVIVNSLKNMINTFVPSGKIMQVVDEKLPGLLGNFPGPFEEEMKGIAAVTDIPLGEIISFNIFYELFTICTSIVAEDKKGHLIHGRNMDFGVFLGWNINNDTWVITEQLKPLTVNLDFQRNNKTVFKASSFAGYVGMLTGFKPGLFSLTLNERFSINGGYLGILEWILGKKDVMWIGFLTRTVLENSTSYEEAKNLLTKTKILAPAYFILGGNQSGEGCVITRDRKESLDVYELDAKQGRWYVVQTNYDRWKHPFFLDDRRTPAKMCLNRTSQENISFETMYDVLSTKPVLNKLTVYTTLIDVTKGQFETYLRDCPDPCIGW
Method: The ability of exemplary compounds to inhibit acid ceramidase was measured.
Cell lysates overexpressing acid ceramidase were used as the enzyme source for compound potency determination in a biochemical fluorescent assay. Briefly, compounds were preincubated with 10 μg protein of cell lysates in a dose-response manner for 1 hr at RT in the assay buffer containing 25 mM NaAC and 100 mM NaCl, pH 4.5. The reaction was initiated by the addition of substrate Rbm14-12 at a final concentration of 6.3 μM. The reaction was run at RT for 1 hr before it was stopped by the addition of the stopping buffer containing 20% methanol (v/v), 1 mg/ml NaIO4, 0.1 M glycine, pH 10.6. The samples were incubated with the stopping buffer at RT for 1 hr to allow the fluorescent product to be formed. Finally the plate was read with SpectraMax i3 plate reader (Molecular Devices) at ex360 nm and em446 nm. Data were collected and used to determine the IC50 values of compounds by curve fitting to the four-parameter inhibition equation.
The symbol “A” indicates inhibition of less than 0.2 μM; the symbol “B” indicates inhibition in the range of 0.2 μM up to 1 μM; and the symbol “C” indicates inhibition of greater than 1 μM.

[2] = Compound solubility in water; format: physicochemical; conditions: read-out: Solubility in H2O

Row | SMILES | IC50 [1] | solubility [2]
1 | Cn1c(=O)oc2cc(N3CCN(C(=O)NCCC4CC4)C(C)(C)C3)ccc21 [Example 53, N-(2-Cyclopropylethyl)-2,2-dimethyl-4-(3-methyl-2-oxo-1,3-benzoxazol-6-yl)piperazine-1-carboxamide] | > 1 µM | 20.5 µM (≈ 7.64 µg/mL)
2 | CC1CN(c2ccc3c(c2)oc(=O)n3C)CC(C)N1C(=O)NCCCCc1ccccc1 (stereo not shown) [Example 59, 2,6-Dimethyl-4-(3-methyl-2-oxo-1,3-benzoxazol-6-yl)-N-(4-phenylbutyl)piperazine-1-carboxamide] | < 0.2 µM | 0.5 µM (≈ 0.218 µg/mL)
3 | Cn1c(=O)oc2cc(N3CCN(C(=O)NCCCCc4ccccc4)CC3=O)ccc21 [Example 63, 4-(3-Methyl-2-oxo-1,3-benzoxazol-6-yl)-3-oxo-N-(4-phenylbutyl)piperazine-1-carboxamide] | > 1 µM | 51.4 µM (≈ 21.7 µg/mL)

More lines, now with the values ahead:

Row | IC50 [1] | solubility [2] | SMILES
4 | 0.2 to 1 µM | 2.4 µM (≈ 0.899 µg/mL) | CCCCCNC(=O)N1CCN(c2ccc3c(c2)oc(=O)n3C)CC1(C)C [Example 54, 2,2-Dimethyl-4-(3-methyl-2-oxo-1,3-benzoxazol-6-yl)-N-pentyl-piperazine-1-carboxamide]
5 | 0.2 to 1 µM | 3.5 µM (≈ 1.53 µg/mL) | Cn1c(=O)oc2cc(N3CCN(C(=O)NCCOCc4ccccc4)C(C)(C)C3)ccc21 [Example 57, N-(2-Benzyloxyethyl)-2,2-dimethyl-4-(3-methyl-2-oxo-1,3-benzoxazol-6-yl)piperazine-1-carboxamide]
6 | < 0.2 µM | 41.8 µM (≈ 20.6 µg/mL) | CN(C)CCn1c(=O)oc2cc(N3CCN(C(=O)NCCCCc4ccccc4)C(C)(C)C3)ccc21 [Example 58, 4-[3-[2-(Dimethylamino)ethyl]-2-oxo-1,3-benzoxazol-6-yl]-2,2-dimethyl-N-(4-phenylbutyl)piperazine-1-carboxamide]
7 | < 0.2 µM | 6.8 µM (≈ 3.06 µg/mL) | Cn1c(=O)oc2cc(N3CCN(C(=O)NCCCCc4ccccc4)C(C)(C)C3=O)ccc21 [Example 64, 2,2-Dimethyl-4-(3-methyl-2-oxo-1,3-benzoxazol-6-yl)-3-oxo-N-(4-phenylbutyl)piperazine-1-carboxamide]
8 | < 0.2 µM | 18.9 µM (≈ 8.52 µg/mL) | Cn1c(=O)oc2cc(N3CC(C)(C)N(C(=O)NCCCCc4ccccc4)CC3=O)ccc21 [Example 65, 2,2-Dimethyl-4-(3-methyl-2-oxo-1,3-benzoxazol-6-yl)-5-oxo-N-(4-phenylbutyl)piperazine-1-carboxamide]
